Here are results for three compounds from EP0006532A1, “Lactams, methods for their preparation, and medicaments containing them” (Dr. Karl Thomae GmbH, priority 1978, dated 1980).

In general, ED50 refers to the midpoint of the dose-response relation. A high value points to a need for a large dose.

Converted amounts (≈) assume the structure as drawn.

Experiment [1] concerns Klebs. pneum. ATCC 10031. Put plainly: MIC (MHK), agar diffusion and serial dilution test. The experiment is classed as cell-based. Conditions: read-out: MHK-Werte. The source says:
(§1) Die Untersuchungen auf die antibakterielle Wirksamkeit in vitro wurde nach dem Agar-Diffusionstest und nach dem Reihenverdünnungstest in Anlehnung an die von P. Klein in "Bakteriologische Grundlagen der Chemotherapeutischen Laboratoriumspraxis", Springerverlag 1957, Seiten 53 bis 76 und 87 bis 109, beschriebenen Methodik durchgeführt.
(§2) Für D-α-[3-(3,4-Dihydro-3-methyl-2-hydroxy-4-oxo-5- pyrimidyl)-ureido/-p-hydroxybenzyl-penicillin-Natrium (Verbindung 1) und für Natrium-7-{D-α-[3-(3,4-Dihydro-2-hydroxy-3-methyl-4-oxo-5-pyrimidyl)-ureido]-p-hydroxyphenylacetamido}-3-[(1-methyl-tetrazol-5-yl)-thiomethyl]-ceph-3-em-4-carboxylat (Verbindung 2) wurden folgende MHK-Werte gegen einige gramnegative Keime gemessen: […]

For experiment [2], the system named is Proteus Vulgaris. Put plainly: MIC (MHK), agar diffusion and serial dilution test. The experiment is classed as cell-based. To be noted: read-out: MHK-Werte.
Excerpt: as §1, §2
(In general: In agar diffusion tests the substance spreads into inoculated agar from a disc or well.)

Experiment [3] concerns Proteus mirab. The experiment can be described thus: MIC (MHK), agar diffusion and serial dilution test. It counts as cell-based. Conditions: read-out: MHK-Werte.
Excerpt: as §1, §2

Experiment [4] concerns E.coli ATCC 11775. Put plainly: MIC (MHK), agar diffusion and serial dilution test. It counts as cell-based. To be noted: Escherichia coli, ATCC11775, read-out: MHK-Werte.
Excerpt: as §1, §2

Experiment [5] deals with Pseud.aerug. ATCC 10145. Put plainly: MIC (MHK), agar diffusion and serial dilution test. To be noted: read-out: MHK-Werte. The experiment is classed as cell-based.
Excerpt: as §1, §2

For experiment [6], the system named is E.coli 12593/ 74. Put plainly: MIC (MHK), agar diffusion and serial dilution test. It counts as cell-based. Conditions: Escherichia coli, read-out: MHK-Werte.
Excerpt: as §1, §2

Experiment [7] concerns Ser. marcescens ATCC 13880. Put plainly: MIC (MHK), agar diffusion and serial dilution test. Conditions: Serratia marcescens, ATCC13880, read-out: MHK-Werte. The experiment is classed as cell-based.
Excerpt: as §1, §2

For experiment [8], the system named is E.coli ATCC 9637. The experiment can be described thus: MIC (MHK), agar diffusion and serial dilution test. It counts as cell-based. Conditions: Escherichia coli, ATCC9637, read-out: MHK-Werte.
Excerpt: as §1, §2

Experiment [9] concerns Pseud.aerug Hbg. The experiment can be described thus: MIC (MHK), agar diffusion and serial dilution test. It counts as cell-based. Conditions: read-out: MHK-Werte.
Excerpt: as §1, §2

Experiment [10] relates to Klebs. pneum. 272. Put plainly: MIC (MHK), agar diffusion and serial dilution test. It counts as cell-based. Conditions: read-out: MHK-Werte.
Excerpt: as §1, §2

In experiment [11] the test system is E. coli des Stammes ATCC 11 775. Put plainly: ED50 in intraperitoneal E. coli infection of mice. The experiment is classed as in vivo, Albino-Mäusen vom Stamm NMRI. Conditions: Escherichia coli, ATCC11, sc; intraperitoneal E. coli ATCC 11 775 infection, NMRI albino mice, subcutaneous application; treated three times on day 1 (first 1 h after infection), twice daily on 2 further days. The protocol:
Dabei wurde die ED50 der oben genannten Verbindungen 1 und 2 bei einer intraperitonealen E. coli-Infektion an Albino-Mäusen vom Stamm NMRI bestimmt. Am ersten Tag wurde dreimal behandelt (erstmals 1 h nach Infektion) und 2 weitere Tage zweimalig.

As to `Cn1nnnc1SCC1=C(C(=O)O)N2C(=O)[C@@H](NC(=O)[C@H](NC(=O)Nc3cnc(O)n(C)c3=O)c3ccc(O)cc3)[C@H]2SC1` [Beispiel 2], the MIC in experiment [1] was 1.25 µg/mL (≈ 1.94 µM); in [2], 10 µg/mL (≈ 15.5 µM); in [3], 1.25 µg/mL (≈ 1.94 µM); in [4], 1.25 µg/mL (≈ 1.94 µM); in experiment [5] it was 20 to 40 µg/mL (≈ 31 to 62 µM); in experiment [6], 5 µg/mL (≈ 7.76 µM). In addition, the MIC in [7] worked out at 10 µg/mL (≈ 15.5 µM); in experiment [8], 1.25 µg/mL (≈ 1.94 µM); in experiment [9], 20 µg/mL (≈ 31 µM); in [10] it was 2.5 µg/mL (≈ 3.88 µM).

For `Cn1c(O)ncc(NC(=O)N[C@@H](C(=O)N[C@@H]2C(=O)N3[C@@H]2SC(C)(C)[C@@H]3C(=O)O)c2ccc(O)cc2)c1=O` [Verbindung 1], the MIC in experiment [1] was 40 to 80 µg/mL (≈ 75.1 to 150 µM); in [2], 10 µg/mL (≈ 18.8 µM); in experiment [3], 1.25 µg/mL (≈ 2.35 µM); in [4], 2.5 µg/mL (≈ 4.69 µM); in [5], 5 µg/mL (≈ 9.39 µM); in experiment [6] it was more than 80 µg/mL. The MIC in experiment [7] was 2.5 µg/mL (≈ 4.69 µM); in experiment [8], 2.5 µg/mL (≈ 4.69 µM); in [9], 5 µg/mL (≈ 9.39 µM); in experiment [10], 40 to 80 µg/mL (≈ 75.1 to 150 µM). In [11], this compound had an ED50 of 7 mg/kg.

In the case of `Cn1nnnc1SCC1=C(C(=O)[O-])N2C(=O)C(NC(=O)[C@H](NC(=O)Nc3cnc(O)n(C)c3=O)c3ccc(O)cc3)[C@H]2SC1.[Na+]` (stereo partly drawn) [Verbindung 2, Natrium-7-{D-α-[3-(3,4-Dihydro-2-hydroxy-3-methyl-4-oxo-5-pyrimidyl)-ureido]-p-hydroxyphenylacetamido}-3-[(1-methyl-tetrazol-5-yl)-thiomethyl]-ceph-3-em-4-carboxylat], it took a dose of 3.3 mg/kg to reach the 50% effect level in experiment [11] (ED50).
